Results as given in patent publication US20260317304A1, “TEAD INHIBITORS AND METHODS OF USE” (Sporos BioDiscovery, Inc., priority 2022, published 2026).
Entries after “also recorded” stand apart in the source; their conditions may differ. Values belong to the compound of their own block, whether it stands above or below them.

Legend:
[1] = test system: NCI-H226 cells; experiment: Proliferation and cell viability assay, CellTiter-Glo 2.0 (CTG); type: cell-based, human; settings: Homo sapiens, NCI-H226, responder cell line, 144 hrs
Procedure: (§1) Cell proliferation of a TEAD dependent NF2-null mesothelioma cell line, NCI-H226 was assayed using two different protocols. Results were confirmed in two different TEAD-non-dependent lung cancer cell lines, H23 and H28, were used as non-responsive controls, as indicated:
a) CellTiter-Glo® 2.0 (Promega #G9243). The effect of the TEAD inhibitors disclosed herein on cell proliferation was determined in TEAD1-genetically dependent cell line NCI-H226 (responder cell line) and TEAD-independent cell lines (NCI-H23, HEK293T), as non-responder, negative control. Cells were seeded in 96-well plates (Thermo Scientific #167008) in growth media (RPMI-1640, Gibco #61870-010) for NCI-H226 and NCI-H23 or DMEM (Gibco #31966-021, HEK293T) with […] Heat Inactivated Fetal Bovine Serum (Gibco 10500-064) at 800 (NCI-H226 and HEK-293T) or 2000 (NCI-H23) cells per well at 37° C., […], humidified incubator; 24 hours later, fresh growth media containing test compound or DMSO vehicle was added and incubated with the cells for 144 hrs. TEAD inhibitor stocks were made at a 1000× fold excess in DMSO, and a dose response test compound dose range of 10,000 to 0.1 nM was used. Each treatment was carried out in triplicate. After 144 hrs of treatment, relative cell viability numbers were determined using the CellTiter-Glo 2.0 assay following the manufacturer's instructions. Test plates and CellTiter-Glo 2.0 reagent were allowed to equilibrate to room temperature. CellTiter-Glo 2.0 reagent was added at 1:1 reagent to media ratio to the 96-well cell plates, plates were placed on a plate shaker for 2 minutes and then incubated at room temperature for a further 10 minutes to allow complete cell lysis to occur. The mix was then transferred to white, 96-well luminometer assay plates (Greiner Bio One #655075). Luminescence was quantified using a CLARIOStar Plus multi-mode plate reader (BMG Labtech) in luminescence detection mode with the recommended settings (ultra-Glo pre-set: emission 545-50 nm with autofocus and enhanced dynamic range on). Relative cell density was expressed as a function of inhibitor concentration, with respect to DMSO-only control wells. Data where plotted using GraphPad Prism and IC50 values for the biological effect were calculated using the EC50 non-linear fit function using a sigmoidal, 4-parameter logistic, least squares fit with no constraints.
(§2) For IC50 and EC50 data “A” indicates a value of less than 0.2 μM; the symbol “B” indicates a value in the range of from 0.2 μM up to 1 μM; and the symbol “C” indicates a value of greater than 1 μM. ND: no data.

[2] = test system: NCI-H23 cells; experiment: as above; type: cell-based; settings: Homo sapiens, non-responder cell line, 144 hrs
Procedure: as §1
a) CellTiter-Glo® 2.0 (Promega #G9243). The effect of the TEAD inhibitors disclosed herein on cell proliferation was determined in TEAD1-genetically dependent cell line NCI-H226 (responder cell line) and TEAD-independent cell lines (NCI-H23, HEK293T), as non-responder, negative control. […] After 144 hrs of treatment, relative cell viability numbers were determined using the CellTiter-Glo 2.0 assay following the manufacturer's instructions. […] Luminescence was quantified using a CLARIOStar Plus multi-mode plate reader (BMG Labtech) in luminescence detection mode with the recommended settings (ultra-Glo pre-set: emission 545-50 nm with autofocus and enhanced dynamic range on). Relative cell density was expressed as a function of inhibitor concentration, with respect to DMSO-only control wells. Data where plotted using GraphPad Prism and IC50 values for the biological effect were calculated using the EC50 non-linear fit function using a sigmoidal, 4-parameter logistic, least squares fit with no constraints. […]

[3] = test system: NCI-H226 cells; experiment: Proliferation and cell viability assay, Cell Titer One; type: cell-based, human; settings: Homo sapiens, NCI-H226, 144 h, Cell Titer One assay, 6 days
Procedure: as §1
b) Cell Titer One (Promega, #G3582). The effect of the TEAD inhibitors disclosed herein on cell proliferation was also determined using the Promega Substrate Cell Titer Aqueous One Solution Reagent. The TEAD inhibitors were evaluated for the effects on cell proliferation responder (H226) and non-responder negative control cancer cell lines (CAMA1, H28), as well as non-transformed normal human cells (HUVEC, NHDF). Dissociated cells were resuspend in media (depending on cell line, either in DMEM, RPMI, or EMEM all with 10% FBS, with gentamicin as an antibiotic). Cells were seeded at 100 μL/well at 750 cells per well in 96-well plates and allowed to settle and attach. After an incubation of 24 hrs (37° C., 5% CO2, humidified incubator), 100 μL of test compound-containing media was added. A dilution series of 2000× concentrated stock of test compounds was prepared in DMSO, for final concentrations from 0.1 to 10,000 nM. After addition of test compound-containing media, cells were incubated for 6 days at 37° C., 5% CO2, humidified incubators). To measure cell density, 20 μL of Promega Substrate Cell Titer 96 Aqueous One Solution Reagent (Promega, #G3582) to each well was added according to the manufacturer's instructions. Plates were incubated at 37° C. for usually 3-8 hrs, to reach in the control cells (without compound) an OD of 1.5 at 490 nm. The OD was measured using Vmax [Molecular Devices] spectrophotometer plate reader. Media only-wells were used as background controls and cell densities normalized to DMSO vehicle control. EC50 were taken as the concentration achieving 50% of maximal growth inhibition.
as §2

[4] = biological target: TEAD1 (Homo sapiens, UniProt P28347); experiment: TEAD thermal shift assay (TSA); type: binding
Chain of TEAD1 (Homo sapiens, UniProt P28347) (P28347 whole entry): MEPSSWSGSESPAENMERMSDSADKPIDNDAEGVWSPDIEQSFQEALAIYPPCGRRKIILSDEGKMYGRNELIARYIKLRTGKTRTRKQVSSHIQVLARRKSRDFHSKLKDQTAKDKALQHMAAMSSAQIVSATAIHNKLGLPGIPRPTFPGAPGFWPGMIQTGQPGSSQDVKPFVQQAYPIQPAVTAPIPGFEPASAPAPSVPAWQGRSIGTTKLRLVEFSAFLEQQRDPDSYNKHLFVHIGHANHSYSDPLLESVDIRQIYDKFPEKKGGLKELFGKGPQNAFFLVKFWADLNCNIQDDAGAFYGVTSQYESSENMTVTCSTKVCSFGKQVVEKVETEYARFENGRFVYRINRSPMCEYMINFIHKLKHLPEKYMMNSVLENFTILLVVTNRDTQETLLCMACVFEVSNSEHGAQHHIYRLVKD
Source text: (§3) Thermal shift assay (TSA) is a biophysical method to evaluate stability of proteins with change in temperature. The assay measures thermal denaturation temperature in varying conditions such as different drug concentration. For this example, fluorogenic dye was used that bind to unfolded proteins. SYPRO Orange binds non-specifically to hydrophobic surfaces, and water strongly quenches its fluorescence. When the protein unfolds, the exposed hydrophobic surfaces bind the dye, resulting in an increase in fluorescence by excluding water. Detergent micelles also bind the dye and increase background noise dramatically. Binding of small molecules to proteins leads to a stabilization against to thermal denaturation with the degree of thermal stabilization proportional to the strength of binding.
(§4) The study described in this example investigated the change in melting temperature (ΔTm) of TEAD isoforms 1-4 when treated with TEAD inhibitors.
(§5) Tris-HCL was dissolved in 5 mL of Cell culture grade water and allowed to dissolve completely. The pH was adjusted to 8 using NaOH. Additional assay buffer components were added in the order listed above. The buffer was mixed slowly.
(§6) Assay buffer was prepared according to the procedures outlined above and dispensed into test wells. Spyro orange was added to a concentration of 5× in the assay buffer, followed by test compound stock solution which was added to a concentration of 10 μM or 30 μM in the assay buffer.
(§7) The melt cycle was performed in Bio-RAD PCR instrument from 20-95° C. with ramp rate of 1° C./min.

[5] = biological target: TEAD2 (Homo sapiens, UniProt Q15562); experiment: TEAD thermal shift assay (TSA); type: binding
Chain of TEAD2 (Homo sapiens, UniProt Q15562) (Q15562 whole entry): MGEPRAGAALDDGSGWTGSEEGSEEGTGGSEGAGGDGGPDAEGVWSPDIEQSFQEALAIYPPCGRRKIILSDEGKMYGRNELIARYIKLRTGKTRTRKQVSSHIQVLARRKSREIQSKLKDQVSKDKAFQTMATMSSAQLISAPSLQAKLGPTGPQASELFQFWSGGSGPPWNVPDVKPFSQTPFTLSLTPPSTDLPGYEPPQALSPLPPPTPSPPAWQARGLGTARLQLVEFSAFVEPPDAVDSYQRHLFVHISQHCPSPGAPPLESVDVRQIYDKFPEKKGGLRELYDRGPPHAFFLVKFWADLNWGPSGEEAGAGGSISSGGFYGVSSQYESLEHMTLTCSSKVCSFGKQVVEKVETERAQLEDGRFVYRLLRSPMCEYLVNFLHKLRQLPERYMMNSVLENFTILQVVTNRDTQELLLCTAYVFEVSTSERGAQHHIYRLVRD
Source text: as §3, §4, §5, §6, §7

[6] = biological target: TEAD3 (Homo sapiens, UniProt Q99594); experiment: TEAD thermal shift assay (TSA); type: binding
Chain of TEAD3 (Homo sapiens, UniProt Q99594) (Q99594 whole entry): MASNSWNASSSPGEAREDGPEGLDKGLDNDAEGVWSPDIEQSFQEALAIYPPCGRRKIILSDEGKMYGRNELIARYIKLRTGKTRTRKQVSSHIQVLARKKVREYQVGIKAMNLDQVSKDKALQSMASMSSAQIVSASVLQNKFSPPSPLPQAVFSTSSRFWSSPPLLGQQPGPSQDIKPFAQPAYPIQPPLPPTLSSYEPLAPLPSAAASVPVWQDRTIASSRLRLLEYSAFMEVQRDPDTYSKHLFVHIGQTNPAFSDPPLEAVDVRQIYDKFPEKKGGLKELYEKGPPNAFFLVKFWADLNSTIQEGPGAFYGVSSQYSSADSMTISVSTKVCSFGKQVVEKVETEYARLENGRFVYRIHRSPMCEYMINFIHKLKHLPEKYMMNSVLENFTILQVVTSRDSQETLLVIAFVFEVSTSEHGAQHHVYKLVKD
Source text: as §3, §4, §5, §6, §7

[7] = biological target: TEAD4 (Homo sapiens, UniProt Q15561); experiment: TEAD thermal shift assay (TSA); type: binding
Chain of TEAD4 (Homo sapiens, UniProt Q15561) (Q15561 whole entry): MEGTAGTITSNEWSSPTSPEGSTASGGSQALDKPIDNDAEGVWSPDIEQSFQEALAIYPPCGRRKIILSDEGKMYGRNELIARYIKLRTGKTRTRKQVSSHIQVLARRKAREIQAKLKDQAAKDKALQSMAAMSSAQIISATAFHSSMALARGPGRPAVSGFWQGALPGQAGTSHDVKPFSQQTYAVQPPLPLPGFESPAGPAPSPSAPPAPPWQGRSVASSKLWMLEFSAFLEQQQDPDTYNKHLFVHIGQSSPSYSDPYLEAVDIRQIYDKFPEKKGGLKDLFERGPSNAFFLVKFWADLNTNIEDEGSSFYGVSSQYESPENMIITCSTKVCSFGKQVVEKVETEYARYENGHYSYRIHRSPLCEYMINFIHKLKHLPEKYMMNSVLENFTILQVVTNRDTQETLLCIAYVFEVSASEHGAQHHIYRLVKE
Source text: as §3, §4, §5, §6, §7

[8] = test system: TEAD isoforms 1-4; experiment: TEAD thermal shift assay (TSA), outcome in words; type: binding, human
Source text: as §3, §4, §5, §6, §7

[9] = test system: TEAD; settings: control compounds; cited from earlier work
[10] = test system: SDM103T2 cells; experiment: SDM103T2 proliferation and cell viability assay (CTG); type: cell-based; settings: 144 hours
Procedure: SDM103T2 cells were trypsinised, counted and plated at 800 cells/well in 200 μl of growth media in 96 well flat bottom tissue culture treated plates. The plated cells were incubated overnight at 37° C., 5% CO2 before being treated with compounds in triplicate for each assay point. 50 μl of the serially diluted compound was added to each well giving a final DMSO concentration of 0.5% per well and a total volume of 250 μl per well. The treated cells were incubated for 144 hours (6 days) at 37° C., 5% CO2. Following compound treatment the remaining viable cells were detected using the Promega CellTiter-Glo 2.0 assay as follows: 150 μl of media was removed from each of the wells to be assayed and 100 μl of room temperature CellTiter-Glo 2.0 reagent was added. The plate was placed on an orbital shaker at 500 rpm at room temperature for 2 minutes, and then incubated without shaking for a further 10 minutes at room temperature. 150 μl of cell lysate was removed from each well and dispensed into a single well of a white opaque 96 well plate. Luminescence at 545 nm was read using a BMG CLARIOstar plate reader. The luminescent signal was directly proportional to number of viable cells, the percent of viable cells relative to the DMSO control was then calculated for each assay point. Percent viability relative to DMSO control was plotted against compound concentration and a curve fitted with non-linear regression in GraphPad Prism software. EC50 and absolute IC50 values were calculated using GraphPad Prism software as follows: For EC50 values a non-constrained four-parameter logistic curve fit was used (Sigmoidal, 4PL, X is concentration). For Absolute IC50 values the baseline was constrained to Y=0 and top at 100 (Absolute IC50, X is concentration). Area Under the Curve (AUC): Prism computes area-under-the-curve by the trapezoidal method. The analysis sees a fitted curve as simply a series of connected XY points. Prism simply computes the area under the “curve” defined by connecting the points by straight lines. The units of the AUC are the units of the Y axis times units of the X axis.
For EC50 data, the symbol “A” indicates a value of less than 0.2 μM; the symbol “B” indicates a value in the range of from 0.2 μM up to 1 μM; and the symbol “C” indicates a value of greater than 1 μM.

[11] = test system: MSTO-211H xenograft; experiment: Mouse xenograft MSTO-211H tumors compared to prior art TEAD inhibitor; type: in vivo, BALB/c nude mice; settings: 7 days of treatment, PO BID, 3 mg/kg Compound 1-1
Procedure: This study evaluated the in vivo anti-tumor efficacy of test compounds in BALB/c nude mice for treatment of MSTO-211H xenograft of lung cancer.
The MSTO-211H tumor cells were maintained in vitro in RPMI 1640 medium supplemented with 10% Fetal bovine serum and 1% Antibiotic-Antimycotic at 37° C. in an atmosphere of 5% CO2 in air. The tumor cells were routinely subcultured twice weekly by trypsin-EDTA. The cells growing in an exponential growth phase were harvested and counted for tumor inoculation.
Each mouse was inoculated subcutaneously at the right flank with MSTO-211H tumor cells (10×10^6+50% matrigel/0.2 mL) for tumor development. Test subjects received vehicle (e.g., 0.5% CMC-Na+1% Tween80) beginning on day 7 after cell inoculation. […]
The major endpoint was to determine if the tumor growth could be delayed. Tumor size was measured twice a week in two dimensions using a caliper, and the volume was expressed in mm^3 using the formula: V=0.5 a×b^2 where a and b are the long and short diameters of the tumor, respectively. […]
Summary statistics, including mean and the standard error of the mean (SEM), were calculated for the tumor volume of each group at each time point. […]
One-tailed T test was performed to compare tumor volumes between two groups. All data were analyzed using GraphPad Prism 6.0. p<0.05 was considered to be statistically significant.

[12] = as reported by Tang et al.; cited from earlier work
[13] = test system: TEAD1; settings: thermal shift; cited from earlier work
[14] = test system: TEAD2; settings: thermal shift; cited from earlier work
[15] = test system: TEAD3; settings: thermal shift; cited from earlier work
[16] = test system: TEAD4; settings: thermal shift; cited from earlier work
[17] = test system: TEAD isoforms 1-4; settings: thermal shift data of Tang and Post; cited from earlier work
[18] = Ratio of Protein to Compound 1:1
[19] = Ratio of Protein to Compound 1:3

- EC50 [1]: < 0.2 µM
- IC50 [2]: > 1 µM
- IC50 [3]: < 0.2 µM
SMILES: Cn1cnc(-c2cc(C3(C)CCNC3=O)ccc2Nc2ccc(C(F)(F)F)cc2)c1 (racemic) [Compound 2, 3-methyl-3-(3-(1-methyl-1H-imidazol-4-yl)-4-((4-(trifluoromethyl)phenyl)amino)phenyl) pyrrolidin-2-one]

- TEAD1 ΔTm [4, 18]: 7.5 °C
- TEAD1 ΔTm [4, 19]: 11 °C
- TEAD2 ΔTm [5, 18]: 2.5 °C
- TEAD2 ΔTm [5, 19]: 11 °C
- TEAD3 ΔTm [6, 18]: 3 °C
- TEAD4 ΔTm [7, 18]: 1.5 °C
- TEAD4 ΔTm [7, 19]: 11 °C
SMILES: C[C@H](NC(=O)c1ccc2c(-c3ccc(C(F)(F)F)cc3)cccc2c1)c1cccc(N)n1 [Compound 1-4]
- thermal shift / TEAD binding (in words) [8]: thermal shifts for all four TEAD isoforms
- known TEAD inhibition (in words) [9]: pan-TEAD inhibitor

- TEAD2 ΔTm [5, 19]: 1 °C
- TEAD3 ΔTm [6, 19]: 0 °C
- TEAD4 ΔTm [7, 19]: 1 °C
- thermal shift / TEAD binding (in words) [8]: pronounced thermal shift only for TEAD1
SMILES: CNS(=O)(=O)c1ccc(Nc2ccc(C(F)(F)F)cc2)c(-c2cn(C)cn2)c1 [Compound 1-1]
- EC50 [10]: < 0.2 µM
- change in tumor volume (in words) [11]: Tumor growth was observed
- known TEAD inhibition (in words) [9]: known strong TEAD1 and weak TEAD2 inhibitor
- half-life (in words) [12]: long half-life

Continued, compound first:

SMILES: Cc1nnc(-c2cc(C3(C)CCNC3=O)ccc2Nc2ccc(C(F)(F)F)cc2)o1 (racemic) [Compound 1, 3-methyl-3-(3-(5-methyl-1,3,4-oxadiazol-2-yl)-4-((4-(trifluoromethyl)phenyl)amino)phenyl) pyrrolidin-2-one]
- EC50 [1]: < 0.2 µM
- IC50 [2]: > 1 µM
- IC50 [3]: < 0.2 µM

SMILES: C[C@H](CO)NC(=O)c1ccc2c(Oc3ccc(C(F)(F)F)cc3)cccc2c1 [VT3989]
- TEAD1 ΔTm [13]: 11.6 °C
- TEAD2 ΔTm [14]: 8.8 °C
- TEAD3 ΔTm [15]: 8.5 °C
- TEAD4 ΔTm [16]: 4.6 °C
- TEAD isoform interaction / binding (in words) [17]: primarily interacts with TEAD1-3; also recorded: lower levels of binding to TEAD4
- selectivity over TEAD2 and 3 (in words) [17]: minimal selectivity over TEAD2 and 3
